Data reported in patent US7700080B2, “Method of suppressing melanin production by metal chelates of lipoyl amino acid derivatives” (Senju Pharmaceutical Co., Ltd., priority 2001, dated 2010).

Tests used:
[1] = system: B16-F0 melanoma cell line; test: Melanin production suppressing activity in B16-F0 melanoma cells; format: cell-based, mouse; conditions: for Melanin amount (% of control): three days with 2 mM theophylline; for Suppressive action on melanin production (in words): summary of Table 2, compared with arbutin or kojic acid
Protocol: B16-F0 melanoma cell line of mouse origin, purchased from Dainippon Pharmaceutical Co., Ltd. was used in the experiment. In 60-mm petri dish, 200,000 cells were incubated for five days in a medium (D-MEM*+10% FBS*) supplemented with 0.1% D-glucosamine hydrochloride, an inhibitor of carbohydrate synthesis, to halt melanin synthesis and turn the culture white. Following the 5-day culture, the cells were washed with PBS(−)* to remove D-glucosamine hydrochloride, and 2 mM theophylline (250-fold concentrated solution/distilled water), a phosphodiesterase inhibitor, was added to raise intracellular cAMP and thereby promote the recovery of tyrosinase synthesis. At the same time, a test compound (250-fold concentrated solution/PBS(−)) was added. Three days after the addition of theophylline and the test compound, the cells were harvested by trypsin treatment. The cell pellets were resuspended in 1 ml of PBS(−), 0.1 ml of which was used for counting cells, and 0.9 ml for melanin determination. Determination of melanin was carried out by washing the cell pellets once with 5% trichloroacetic acid, ethanol/diethyl ether (3:1), and then diethyl ether, adding 1 ml of 2 N NaOH to lyse the cells, measuring optical density at 420 nm, and comparing the result with a calibration curve produced with reference standard.

elastase = test: Elastase inhibiting activity (Suc(Ome)-Ala-Ala-Pro-Val-MCA fluorescence); format: biochemical; conditions: for Elastase inhibition rate (%): 25° C., pH 7.5; for Elastase inhibiting activity (in words): summary of Table 3
Protocol: 96-well plates were used. 1 mM of Suc(Ome)-Ala-Ala-Pro-Val-MCA, 30 μl of a test sample, 210 μl of Tris-NaCl Buffer (25° C., pH 7.5) and 30 μl of 1 unit/ml elastase were added and fluorescence was measured every minute (Ex. 360/40 nm, Em. 460/40 nm). Inhibition rates of elastase activity were determined based on a calibration curve produced with AMC (7-amino-4-methyl-coumarin) reference standard.

[2] = molecular target: T1, Tyrosine hydroxylase from rat brain (Rattus norvegicus, UniProt P04177); test: Tyrosine hydroxylase inhibiting activity; format: biochemical; conditions: for Tyrosine hydroxylase inhibition rate: 37° C., 40 minutes, pH 6.0
T1 construct: Tyrosine hydroxylase from rat brain was used in the test; from tissue; host or cells: rat brain
T1 sequence (P04177 whole entry): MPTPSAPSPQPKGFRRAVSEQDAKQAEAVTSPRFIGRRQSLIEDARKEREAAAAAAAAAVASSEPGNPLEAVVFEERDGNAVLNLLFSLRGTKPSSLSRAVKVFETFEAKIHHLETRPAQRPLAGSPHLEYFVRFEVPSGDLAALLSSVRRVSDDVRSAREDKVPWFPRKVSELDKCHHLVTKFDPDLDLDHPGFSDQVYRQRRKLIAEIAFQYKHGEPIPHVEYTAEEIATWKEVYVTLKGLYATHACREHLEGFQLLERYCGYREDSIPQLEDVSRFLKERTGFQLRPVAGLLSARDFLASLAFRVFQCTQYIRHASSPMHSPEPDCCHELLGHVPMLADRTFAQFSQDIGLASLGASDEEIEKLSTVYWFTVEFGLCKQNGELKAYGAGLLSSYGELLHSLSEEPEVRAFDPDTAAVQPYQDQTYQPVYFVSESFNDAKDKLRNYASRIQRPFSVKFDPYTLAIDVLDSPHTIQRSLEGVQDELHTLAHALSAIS
Protocol: Tyrosine hydroxylase from rat brain was used in the test.
A test compound added to 100 μM tyrosine containing L-[3,5-^3H] tyrosine (0.5 μCi/assay), 1 mg of tyrosine hydroxylase, 0.2 mM of (6R)-5,6,7,8-tetrahydro-L-biopterin, 1.8 mg/ml catalase, 5 mM dithiothreitol (in MES buffer, pH 6.0) was incubated at 37° C. for 40 minutes. The reaction was terminated by addition of 7.5% charcoal in 1 M hydrochloric acid.
^3H2O derived from 3,4-dihydroxyphenylalanine (DOPA) was determined by liquid scintillation.

SMILES | Melanin amount (% of control) ([1]; 0.1 mM) | Melanin amount (% of control) ([1]; 0.3 mM) | Melanin amount (% of control) ([1]; 1 mM) | Elastase inhibition rate (%) (elastase; 0.03 mM) | Elastase inhibition rate (%) (elastase; 0.1 mM) | Elastase inhibition rate (%) (elastase; 0.3 mM) | Elastase inhibition rate (%) (elastase; 1 mM) | Melanin amount (% of control) ([1]; 0.03 mM) | Suppressive action on melanin production (in words) [1] | Tyrosine hydroxylase inhibition rate ([2]; test compound 0.1 mM) | Tyrosine hydroxylase inhibition rate ([2]; test compound 1 mM) | Elastase inhibiting activity (in words) (elastase) | Melanin amount (% of control) ([1]; 10 mM) | Tyrosine hydroxylase inhibiting activity (in words) ([2]; summary of Table 1)
OC[C@H]1O[C@@H](Oc2ccc(O)cc2)[C@H](O)[C@@H](O)[C@@H]1O [Arbutin, reference compound] | 97.29 % of control | 88.86 % of control | 83.02 % of control |  |  |  |  |  |  |  |  |  |  | 
CC(C)C[C@H](NC(=O)N[C@H](C(=O)N[C@@H](CCC(N)=O)C(=O)N[C@@H](C)C=O)[C@@H]1CCNC(=N)N1)C(=O)O [Elastinal, reference compound] |  |  |  | 25.29% | 56.87% | 77.45% | 93.01% |  |  |  |  |  |  | 
O=C(CCCCC1CC[S][Zn][S]1)NCCS(=O)(=O)[O-].[Na+] (centres unmarked) [Example 1, N-(6,8-dimercaptooctanoyl)aminoethanesulfonic acid sodium salt zinc chelate compound] | 30.01 % of control | 12.28 % of control |  |  |  |  |  | 78.33 % of control | potent suppressive action on melanin production | 15% | 53% |  |  | 
O=C([O-])CCCCCNC(=O)CCCCC1CC[S][Zn][S]1.[Na+] (centres unmarked) [Example 5, N-(6,8-dimercaptooctanoyl)-6-aminohexanoic acid sodium salt zinc chelate compound] | 27.69 % of control | 9.85 % of control |  | 94.74% |  |  |  | 64.43 % of control | potent suppressive action on melanin production |  |  | comparable to Elastinal |  | 
O=C([O-])CCCNC(=O)CCCCC1CC[S][Zn][S]1.[Na+] (centres unmarked) [Example 6, N-(6,8-dimercaptooctanoyl)-γ-amino-n-butyric acid sodium salt zinc chelate compound] | 29.20 % of control | 9.73 % of control |  | 78.95% |  |  |  | 61.18 % of control | potent suppressive action on melanin production |  |  | comparable to Elastinal |  | 
O=C(CCCCC1CC[S][Zn][S]1)NC(Cc1ccccc1)C(=O)[O-].[Na+] (centres unmarked) [Example 7, N-(6,8-dimercaptooctanoyl)phenylalanine sodium salt zinc chelate compound] | 37.78 % of control |  |  | 83.33% |  |  |  | 71.43 % of control | potent suppressive action on melanin production |  |  | comparable to Elastinal |  | 
O=C(CCCCC1CC[S][Zn][S]1)Nc1ccccc1C(=O)[O-].[Na+] (centres unmarked) [Example 8, N-(6,8-dimercaptooctanoyl)anthranilic acid sodium salt zinc chelate compound] | 47.64 % of control | 16.74 % of control |  | 24.07% | 48.15% | 72.22% |  | 72.47 % of control | potent suppressive action on melanin production |  |  | comparable to Elastinal |  | 
CSCCC(NC(=O)CCCCC1CC[S][Zn][S]1)C(=O)O (centres unmarked) [Example 9, N-(6,8-dimercaptooctanoyl)methionine zinc chelate compound] | 50.18 % of control | 16.41 % of control |  | 7.41% | 68.52% | 88.89% |  | 63.05 % of control | potent suppressive action on melanin production |  |  | comparable to Elastinal |  | 
O=c1cc(CO)occ1O [Kojic acid, reference compound] | 92.70 % of control | 88.04 % of control | 68.80 % of control |  |  |  |  |  |  |  |  |  | 18.73 % of control | 
O=C(CCCCC1CCSS1)NCCS(=O)(=O)[O-].[Na+] (stereo not drawn) [Reference Example 1, N-α-lipoylaminoethanesulfonic acid sodium salt] |  |  |  |  |  |  |  |  |  | 11% | 10% |  |  | 
O=C(O)CCCCC1CCSS1 (stereo not drawn) [α-lipoic acid, reference compound] |  |  |  | −2.94% | 11.76% | 10.29% |  |  |  | 2% | 1% | did not show any elastase inhibiting activity |  | no tyrosine hydroxylase inhibiting activity
